Test system: MV-4-11 cells
Assay: Gene expression microarray analysis (Affymetrix PrimeView) and GSEA
Assay type: cell-based, human
Design: RFU PODN (11730768_x_at) / Fold change /veh PODN (11730768_x_at) / RFU LINC00158 (11744669_a_at) / Fold change /veh LINC00158 (11744669_a_at) / RFU DUSP10 (11751237_a_at) / Fold change /veh DUSP10 (11751237_a_at) / RFU ID3 (11757404_x_at) / Fold change /veh ID3 (11757404_x_at) / RFU PLEKHG5 (11737974_s_at) / Fold change /veh PLEKHG5 (11737974_s_at) / RFU LRRC4B (11730491_at) / Fold change /veh LRRC4B (11730491_at) / RFU GIMAP4 (11747438_a_at) / Fold change /veh GIMAP4 (11747438_a_at) / RFU KRT8 (11758183_x_at) / Fold change /veh KRT8 (11758183_x_at) / RFU CNN1 (11734310_a_at) / Fold change /veh CNN1 (11734310_a_at) / RFU VPS37D (11726825_at) / Fold change /veh VPS37D (11726825_at) / RFU C10orf10 (11716522_x_at) / Fold change /veh C10orf10 (11716522_x_at) / RFU KIR2DL2 /// KIR2DL4 /// KIR2DL5A /// KIR2DL5B /// KIR2DS1 /// KIR2DS2 /// KIR2DS3 /// KIR2DS4 /// KIR3DL3 /// KIR3DL3 /// KIR3DS1 (11738374_at) / Fold change /veh KIR2DL2 /// KIR2DL4 /// KIR2DL5A /// KIR2DL5B /// KIR2DS1 /// KIR2DS2 /// KIR2DS3 /// KIR2DS4 /// KIR3DL3 /// KIR3DL3 /// KIR3DS1 (11738374_at) / RFU C1QL1 (11718748_at) / Fold change /veh C1QL1 (11718748_at) / RFU TMPRSS4 (11747572_a_at) / Fold change /veh TMPRSS4 (11747572_a_at) / RFU HAMP (11756126_x_at) / Fold change /veh HAMP (11756126_x_at) / RFU RNFT2 (11725882_a_at) / Fold change /veh RNFT2 (11725882_a_at) / RFU NR4A2 (11747474_a_at) / Fold change /veh NR4A2 (11747474_a_at) / RFU ABCC12 (11746883_a_at) / Fold change /veh ABCC12 (11746883_a_at) / RFU TMEM136 (11760407_x_at) / Fold change /veh TMEM136 (11760407_x_at) / RFU CLDN22 /// WWC2 (11732394_at) / Fold change /veh CLDN22 /// WWC2 (11732394_at) / RFU HLA-DPB1 (11760878_x_at) / Fold change /veh HLA-DPB1 (11760878_x_at) / RFU SPINT1 (11716480_a_at) / Fold change /veh SPINT1 (11716480_a_at) / RFU GAP43 (11754022_s_at) / Fold change /veh GAP43 (11754022_s_at) / RFU A4GNT (11735810_at) / Fold change /veh A4GNT (11735810_at) / RFU PRB3 (11715151_x_at) / Fold change /veh PRB3 (11715151_x_at) / RFU TUBB4B (11761932_at) / Fold change /veh TUBB4B (11761932_at) / RFU CAPN14 (11732068_a_at) / Fold change /veh CAPN14 (11732068_a_at) / RFU TMCC2 (11721928_a_at) / Fold change /veh TMCC2 (11721928_a_at) / RFU IRGQ (11745062_a_at) / Fold change /veh IRGQ (11745062_a_at) / RFU FAM174B (11720279_a_at) / Fold change /veh FAM174B (11720279_a_at) / RFU TMPRSS4 (11748680_a_at) / Fold change /veh TMPRSS4 (11748680_a_at) / RFU FAM212B (11763350_a_at) / Fold change /veh FAM212B (11763350_a_at) / RFU PLEKHG5 (11743358_a_at) / Fold change /veh PLEKHG5 (11743358_a_at) / RFU ZSCAN30 (11745921_a_at) / Fold change /veh ZSCAN30 (11745921_a_at) / RFU CMKLR1 (11741424_a_at) / Fold change /veh CMKLR1 (11741424_a_at) / RFU LOC101060620 /// MAPK8IP1 (11723275_at) / Fold change /veh LOC101060620 /// MAPK8IP1 (11723275_at) / RFU SPTSSB (11747773_x_at) / Fold change /veh SPTSSB (11747773_x_at) / RFU PRSS12 (11739890_at) / Fold change /veh PRSS12 (11739890_at) / RFU BIN1 (11741810_x_at) / Fold change /veh BIN1 (11741810_x_at) / RFU WNT11 (11732464_a_at) / Fold change /veh WNT11 (11732464_a_at) / RFU C10orf10 (11716521_a_at) / Fold change /veh C10orf10 (11716521_a_at) / RFU C5orf56 (11738089_at) / Fold change /veh C5orf56 (11738089_at) / RFU CYB561 (11721691_x_at) / Fold change /veh CYB561 (11721691_x_at) / RFU ANKRD19P (11752326_a_at) / Fold change /veh ANKRD19P (11752326_a_at) / RFU OR2T12 /// OR2T33 /// OR2T8 (11738714_s_at) / Fold change /veh OR2T12 /// OR2T33 /// OR2T8 (11738714_s_at) / RFU VCAN (11748164_a_at) / Fold change /veh VCAN (11748164_a_at) / RFU JSRP1 (11732532_at) / Fold change /veh JSRP1 (11732532_at) / RFU KRTAP10-11 (11738290_x_at) / Fold change /veh KRTAP10-11 (11738290_x_at) / RFU MYO3A (11730013_a_at) / Fold change /veh MYO3A (11730013_a_at) / RFU EBF3 (11725865_a_at) / Fold change /veh EBF3 (11725865_a_at) / RFU CAMK2N1 (11719241_x_at) / Fold change /veh CAMK2N1 (11719241_x_at) / RFU C5orf56 (11738088_a_at) / Fold change /veh C5orf56 (11738088_a_at) / RFU OLFML3 (11715873_a_at) / Fold change /veh OLFML3 (11715873_a_at) / RFU LOC100653217 /// NTM (11731650_a_at) / Fold change /veh LOC100653217 /// NTM (11731650_a_at) / RFU MAPK11 (11762145_a_at) / Fold change /veh MAPK11 (11762145_a_at) / RFU FIZ1 (11724087_x_at) / Fold change /veh FIZ1 (11724087_x_at) / RFU OASL (11726364_x_at) / Fold change /veh OASL (11726364_x_at) / RFU SOX15 (11748057_x_at) / Fold change /veh SOX15 (11748057_x_at) / RFU CD79A (11719716_a_at) / Fold change /veh CD79A (11719716_a_at) / RFU HIST1H1D (11736915_at) / Fold change /veh HIST1H1D (11736915_at) / RFU CASKIN2 (11723855_a_at) / Fold change /veh CASKIN2 (11723855_a_at) / RFU LOC730098 (11760151_x_at) / Fold change /veh LOC730098 (11760151_x_at) / RFU OR4N2 (11742367_at) / Fold change /veh OR4N2 (11742367_at) / RFU PRRT2 (11749266_a_at) / Fold change /veh PRRT2 (11749266_a_at) / RFU SNX32 (11753110_a_at) / Fold change /veh SNX32 (11753110_a_at) / RFU CDHR5 (11726645_a_at) / Fold change /veh CDHR5 (11726645_a_at) / RFU RCAN1 (11760418_a_at) / Fold change /veh RCAN1 (11760418_a_at) / RFU FAM167A (11723789_a_at) / Fold change /veh FAM167A (11723789_a_at) / RFU FAM26E (11764081_at) / Fold change /veh FAM26E (11764081_at) / RFU ISYNA1 (11749810_s_at) / Fold change /veh ISYNA1 (11749810_s_at) / RFU ACY1 (11761880_at) / Fold change /veh ACY1 (11761880_at) / RFU 11764098_at / Fold change /veh 11764098_at / RFU SAMD14 (11745864_x_at) / Fold change /veh SAMD14 (11745864_x_at) / RFU NPB (11741838_a_at) / Fold change /veh NPB (11741838_a_at) / RFU TMPRSS6 (11731388_a_at) / Fold change /veh TMPRSS6 (11731388_a_at) / RFU KRTAP10-2 (11738614_at) / Fold change /veh KRTAP10-2 (11738614_at) / RFU ARHGAP8 /// PRR5-ARHGAP8 (11727945_x_at) / Fold change /veh ARHGAP8 /// PRR5-ARHGAP8 (11727945_x_at) / RFU KRTAP5-7 /// NADSYN1 (11734609_at) / Fold change /veh KRTAP5-7 /// NADSYN1 (11734609_at) / RFU RASL12 (11751679_a_at) / Fold change /veh RASL12 (11751679_a_at) / RFU CDKN2B (11736163_a_at) / Fold change /veh CDKN2B (11736163_a_at) / RFU PRF1 (11729649_at) / Fold change /veh PRF1 (11729649_at) / RFU, ZNF638 /// ZNF638-IT1 / Fold change vs veh, ZNF638 /// ZNF638-IT1 / RFU, PANK3 / Fold change vs veh, PANK3 / RFU, SH3YL1 / Fold change vs veh, SH3YL1 / RFU, ZEB2 / Fold change vs veh, ZEB2 / RFU, NRIP1 / Fold change vs veh, NRIP1 / RFU, PTTG1IP / Fold change vs veh, PTTG1IP / RFU, CAPN2 / Fold change vs veh, CAPN2 / RFU, MED14 / Fold change vs veh, MED14 / RFU, SNORA58 / Fold change vs veh, SNORA58 / RFU, C1orf63 / Fold change vs veh, C1orf63 / RFU, LRRFIP1 / Fold change vs veh, LRRFIP1 / RFU, NDUFAF7 / Fold change vs veh, NDUFAF7 / RFU, SLC12A2 / Fold change vs veh, SLC12A2 / RFU, IBTK / Fold change vs veh, IBTK / RFU, ESF1 / Fold change vs veh, ESF1 / Fold change vs veh, TMEM50B / RFU, TAOK1 / Fold change vs veh, TAOK1 / RFU, ACBD3 / Fold change vs veh, ACBD3 / RFU, TMA16 / Fold change vs veh, TMA16 / RFU, RWDD3 / Fold change vs veh, RWDD3 / RFU, BCAT1 / Fold change vs veh, BCAT1 / RFU, EDEM3 / Fold change vs veh, EDEM3 / RFU, TMEM33 / Fold change vs veh, TMEM33 / RFU, WDR75 / Fold change vs veh, WDR75 / RFU, AHCTF1 / Fold change vs veh, AHCTF1 / RFU, TFRC / Fold change vs veh, TFRC / RFU, ZDHHC17 / Fold change vs veh, ZDHHC17 / RFU, NOM1 / Fold change vs veh, NOM1 / RFU, ARL8B / Fold change vs veh, ARL8B / RFU, ZBTB11 / Fold change vs veh, ZBTB11 / RFU, TAMM41 / Fold change vs veh, TAMM41 / RFU, KIAA1704 /// LOC100996395 / Fold change vs veh, KIAA1704 /// LOC100996395 / RFU, ING1 / Fold change vs veh, ING1 / RFU, TRMT61B / Fold change vs veh, TRMT61B / RFU, FUBP3 / Fold change vs veh, FUBP3 / RFU, TP53 / Fold change vs veh, TP53 / RFU, TNKS2 / Fold change vs veh, TNKS2 / RFU, ZFP14 / Fold change vs veh, ZFP14 / RFU, ACTR2 / Fold change vs veh, ACTR2 / RFU, PPP3R1 / Fold change vs veh, PPP3R1 / RFU, PIK3R1 / Fold change vs veh, PIK3R1 / RFU, HNRNPA1 / Fold change vs veh, HNRNPA1 / RFU, RNF170 / Fold change vs veh, RNF170 / RFU, ZNF28 / Fold change vs veh, ZNF28 / RFU, RNGTT / Fold change vs veh, RNGTT / RFU, OGT / Fold change vs veh, OGT / RFU, BRD1 / Fold change vs veh, BRD1 / RFU, MARS / Fold change vs veh, MARS / RFU, ZNF655 / Fold change vs veh, ZNF655 / RFU, FAHD1 / Fold change vs veh, FAHD1 / RFU, BDP1 / Fold change vs veh, BDP1 / RFU, LRRCC1 / Fold change vs veh, LRRCC1 / RFU, ARID1A / Fold change vs veh, ARID1A / RFU, ZNF146 / Fold change vs veh, ZNF146 / RFU, ZNF330 / Fold change vs veh, ZNF330 / RFU, GPN3 / Fold change vs veh, GPN3 / RFU, C9orf123 / Fold change vs veh, C9orf123 / RFU, N4BP2L2 / Fold change vs veh, N4BP2L2 / RFU, ARFIP1 / Fold change vs veh, ARFIP1 / RFU, FAM179B / Fold change vs veh, FAM179B / RFU, BCL10 / Fold change vs veh, BCL10 / RFU, UHRF1BP1L / Fold change vs veh, UHRF1BP1L / RFU, BET1 / Fold change vs veh, BET1 / RFU, CNOT2 / Fold change vs veh, CNOT2 / RFU, ZNF268 / Fold change vs veh, ZNF268 / Fold change vs veh, ZNF507 / RFU, DGCR2 / Fold change vs veh, DGCR2 / RFU, WDSUB1 / Fold change vs veh, WDSUB1 / Fold change vs veh, HSP90B1 /// MIR3652 / RFU, ADSS / Fold change vs veh, ADSS / RFU, GK / Fold change vs veh, GK / RFU, ZNF148 / Fold change vs veh, ZNF148 / RFU, TAF9 / Fold change vs veh, TAF9 / RFU, SLC1A5 / Fold change vs veh, SLC1A5 / RFU, SLMO2 / Fold change vs veh, SLMO2 / RFU, ABCC4 / Fold change vs veh, ABCC4 / RFU, LOC101060439 /// RAP1B / Fold change vs veh, LOC101060439 /// RAP1B / RFU, RFX7 / Fold change vs veh, RFX7 / RFU, GTPBP10 / Fold change vs veh, GTPBP10 / RFU, CNEP1R1 / Fold change vs veh, CNEP1R1 / RFU, BIVM-ERCC5 /// ERCC5 / Fold change vs veh, BIVM-ERCC5 /// ERCC5 / RFU, ILF3 / Fold change vs veh, ILF3 / RFU 11762660_at / Fold change /veh 11762660_at / RFU VCAN (11757783_s_at) / Fold change /veh VCAN (11757783_s_at) / RFU DDX43 (11728927_at) / Fold change /veh DDX43 (11728927_at) / RFU KRT8 (11758188_x_at) / Fold change /veh KRT8 (11758188_x_at) / RFU NKD1 (11759106_at) / Fold change /veh NKD1 (11759106_at) / RFU SRD5A1 (11742802_a_at) / Fold change /veh SRD5A1 (11742802_a_at) / RFU TPSAB1 /// TPSB2 (11721975_s_at) / Fold change /veh TPSAB1 /// TPSB2 (11721975_s_at) / RFU GSTM3 (11746129_a_at) / Fold change /veh GSTM3 (11746129_a_at) / RFU IL23R (11737362_x_at) / Fold change /veh IL23R (11737362_x_at) / RFU TMEM51 (11727254_a_at) / Fold change /veh TMEM51 (11727254_a_at) / RFU PIWIL2 (11732686_x_at) / Fold change /veh PIWIL2 (11732686_x_at) / RFU ORM1 (11744905_x_at) / Fold change /veh ORM1 (11744905_x_at) / RFU CCDC152 (11743942_at) / Fold change /veh CCDC152 (11743942_at) / RFU ECM1 (11717891_a_at) / Fold change /veh ECM1 (11717891_a_at) / RFU IL23R (11748794_a_at) / Fold change /veh IL23R (11748794_a_at) / RFU TNFAIP8L3 (11732012_x_at) / Fold change /veh TNFAIP8L3 (11732012_x_at) / RFU MBOAT4 (11741988_at) / Fold change /veh MBOAT4 (11741988_at) / RFU 11764193_at / Fold change /veh 11764193_at / RFU TMEM53 (11763286_at) / Fold change /veh TMEM53 (11763286_at) / RFU MAGEB2 (11727129_at) / Fold change /veh MAGEB2 (11727129_at) / RFU TMEM200A (11744735_a_at) / Fold change /veh TMEM200A (11744735_a_at) / RFU CCDC152 (11751479_a_at) / Fold change /veh CCDC152 (11751479_a_at) / RFU FAM211A (11726209_a_at) / Fold change /veh FAM211A (11726209_a_at) / RFU RGS16 (11746705_a_at) / Fold change /veh RGS16 (11746705_a_at) / RFU VCAN (11755009_s_at) / Fold change /veh VCAN (11755009_s_at) / RFU RHOB (11743442_s_at) / Fold change /veh RHOB (11743442_s_at) / RFU RGS16 (11720943_a_at) / Fold change /veh RGS16 (11720943_a_at) / RFU RGS16 (11720944_at) / Fold change /veh RGS16 (11720944_at) / RFU, VPS4B / Fold change vs veh, VPS4B / RFU, CREB1 / Fold change vs veh, CREB1 / RFU, DNAJC13 / Fold change vs veh, DNAJC13 / RFU, GNAQ / Fold change vs veh, GNAQ / RFU, CDK5R1 / Fold change vs veh, CDK5R1 / RFU, ZRANB3 / Fold change vs veh, ZRANB3 / RFU, CUL4A / Fold change vs veh, CUL4A / RFU, CCNY / Fold change vs veh, CCNY / RFU, UFL1 / Fold change vs veh, UFL1 / RFU, COG3 / Fold change vs veh, COG3 / RFU, DIAPH2 / Fold change vs veh, DIAPH2 / RFU, SKA2 / Fold change vs veh, SKA2 / RFU, AFF3 / Fold change vs veh, AFF3 / RFU, LMF1 / Fold change vs veh, LMF1 / RFU, IPO11 / Fold change vs veh, IPO11 / RFU, DFFB / Fold change vs veh, DFFB / RFU, FOXP1 / Fold change vs veh, FOXP1 / RFU, CARD8 / Fold change vs veh, CARD8 / RFU, STRN3 / Fold change vs veh, STRN3 / RFU, ADK / Fold change vs veh, ADK / RFU, RASSF2 / Fold change vs veh, RASSF2 / RFU, WIPF1 / Fold change vs veh, WIPF1 / RFU, LARP1B / Fold change vs veh, LARP1B / RFU, RASA1 / Fold change vs veh, RASA1 / RFU, RB1 / Fold change vs veh, RB1 / RFU, PPFIA1 / Fold change vs veh, PPFIA1 / RFU, MAT2A / Fold change vs veh, MAT2A / RFU, CCT5 / Fold change vs veh, CCT5 / RFU, WDR92 / Fold change vs veh, WDR92 / RFU, CUX1 / Fold change vs veh, CUX1 / RFU, TTC7A / Fold change vs veh, TTC7A / RFU, TMEM135 / Fold change vs veh, TMEM135 / RFU, DEPTOR / Fold change vs veh, DEPTOR / RFU, CPM / Fold change vs veh, CPM / RFU, DNAJB6 / Fold change vs veh, DNAJB6 / RFU, CACNA2D3 / Fold change vs veh, CACNA2D3 / RFU, DTX4 / Fold change vs veh, DTX4 / RFU, TFCP2 / Fold change vs veh, TFCP2 / RFU, GMCL1 /// GMCL1P1 / Fold change vs veh, GMCL1 /// GMCL1P1 / RFU, AEBP2 / Fold change vs veh, AEBP2 / RFU, SNHG1 /// SNORD22 /// SNORD25 /// SNORD26 /// SNORD27 /// SNORD28 /// SNORD29 /// SNORD31 / Fold change vs veh, SNHG1 /// SNORD22 /// SNORD25 /// SNORD26 /// SNORD27 /// SNORD28 /// SNORD29 /// SNORD31 / Fold change (Aza/veh), C12orf56 (ProbeSet 11735607_a_at) / Fold change (ACY-1035/veh), C12orf56 (ProbeSet 11735607_a_at) / Fold change (Aza/veh), FGFR1OP (ProbeSet 11751329_s_at) / Fold change (ACY-1035/veh), FGFR1OP (ProbeSet 11751329_s_at) / Fold change (Aza/veh), VPS36 (ProbeSet 11739960_a_at) / Fold change (ACY-1035/veh), VPS36 (ProbeSet 11739960_a_at) / RFU SYPL1 (11715823_x_at) / Fold change /veh SYPL1 (11715823_x_at) / RFU IGFBP7 (11715501_s_at) / Fold change /veh IGFBP7 (11715501_s_at) / RFU REEP3 (11722064_at) / Fold change /veh REEP3 (11722064_at) / RFU IGLL1 (11728026_x_at) / Fold change /veh IGLL1 (11728026_x_at): dose or concentration left out as unconfirmed
Details: ProbeSet 11743510_at; LIST D

Compound: Nc1ncn([C@@H]2O[C@H](CO)[C@@H](O)[C@H]2O)c(=O)n1 [azacitidine]
- RFU, UFL1: 314.03 RFU

From PMC5218480 (PLoS ONE, 2017)
